Test results from BindingDB's records for doi:10.1111/cbdd.12443 (Northeastern University, 2015).
Counter-ions that a name gives are not always drawn.

target: T1, Phosphodiesterase (Trypanosoma brucei, UniProt Q8WQX9); experiment: TbrPDEB1 Enzyme Assay; details: pH 7.4
T1 sequence (Q8WQX9 whole entry): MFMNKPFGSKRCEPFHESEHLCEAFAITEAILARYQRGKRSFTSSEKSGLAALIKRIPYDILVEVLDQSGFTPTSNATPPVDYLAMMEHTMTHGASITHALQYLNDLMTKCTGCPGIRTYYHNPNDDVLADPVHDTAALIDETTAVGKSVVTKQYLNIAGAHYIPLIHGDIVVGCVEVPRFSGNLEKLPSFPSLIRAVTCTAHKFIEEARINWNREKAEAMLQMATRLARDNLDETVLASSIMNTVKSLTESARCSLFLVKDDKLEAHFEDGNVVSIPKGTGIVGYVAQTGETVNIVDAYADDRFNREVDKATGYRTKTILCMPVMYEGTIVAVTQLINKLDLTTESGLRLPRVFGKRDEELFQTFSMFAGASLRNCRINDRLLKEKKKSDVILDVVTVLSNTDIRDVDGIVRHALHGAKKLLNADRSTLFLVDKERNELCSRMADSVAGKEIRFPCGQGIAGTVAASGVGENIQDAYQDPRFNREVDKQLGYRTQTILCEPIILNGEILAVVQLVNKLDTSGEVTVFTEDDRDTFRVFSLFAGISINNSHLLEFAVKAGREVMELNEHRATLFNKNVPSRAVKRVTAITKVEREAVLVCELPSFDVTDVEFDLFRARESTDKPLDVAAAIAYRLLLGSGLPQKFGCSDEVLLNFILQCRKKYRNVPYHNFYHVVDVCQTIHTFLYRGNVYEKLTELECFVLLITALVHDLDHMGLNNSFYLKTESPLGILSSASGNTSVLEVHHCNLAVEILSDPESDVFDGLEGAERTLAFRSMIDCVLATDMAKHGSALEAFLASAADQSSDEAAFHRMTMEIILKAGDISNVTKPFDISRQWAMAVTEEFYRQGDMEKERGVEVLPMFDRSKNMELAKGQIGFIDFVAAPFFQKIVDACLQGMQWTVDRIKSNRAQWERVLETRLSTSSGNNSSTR
Protocol: In short, recombinant TbrPDEB1 and TbrPDEB2 were assayed in 10 mM Tris pH 7.4, bovine serum albumin (0.2 mg/mL), 10 mM MgCl2, 25µM cAMP (Enzo Lifesciences) and an excess of 5 endonucleotidase (>1000U) at 37 °C. Excess amount of 5 endonucleotidase was determined by titration (Enzo Lifesciences). Reactions were terminated by the addition of BioMol green (Enzo Lifesciences) which was also used to detect changes in the level of phosphate. This was measured by absorbance at 620 nm using a Tecan Sunrise plate reader. […] Inhibitors were preincubated with the assay mixture for 5 min prior to the addition of substrate. Inhibition was determined by the change in the initial velocity relative to a vehicle only control for both compound screening and for the determination of IC50 values. Initial velocity was determined by linear regression and IC50 values were calculated

| SMILES | IC50 |
| --- | --- |
| COc1cccc(Nc2c(C(N)=O)cnc3c(C)cc(S(=O)(=O)c4cccc(C(=O)O)c4)cc23)c1 [3-(3-carbamoyl-4-(3-methoxyphenylamino)-8-methylquinolin-6-ylsulfonyl)benzoic acid (11)] | 2.9 µM |
| CNC(=O)c1cccc(S(=O)(=O)c2cc(C)c3ncc(C(N)=O)c(Nc4cccc(OC)c4)c3c2)c1 [4-(3-methoxyphenylamino)-8-methyl-6-(3-(methylcarbamoyl)phenylsulfonyl)quinoline-3-carboxamide (12b)] | 31 µM |
| COc1ccc(Nc2c(C(N)=O)cnc3c(C)cc(-c4ccc5cnn(C)c5c4)cc23)cc1C [4-(4-Methoxy-3-methylphenylamino)-8-methyl-6-(1-methyl-1H-indazol-6-yl)quinoline-3-carboxamide, formic acid salt (24f)] | 3.7 µM |
| CCOc1cccc(Nc2c(C(N)=O)cnc3c(C)cc(-c4ccc5cnn(C)c5c4)cc23)c1 [4-((3-Ethoxyphenyl)amino)-8-methyl-6-(1-methyl-1H-indazol-6-yl)quinoline-3-carboxamide (24c)] | 4.2 µM |
| COc1cccc(Nc2c(C(N)=O)cnc3ccc(-c4ccc5cnn(C)c5c4)cc23)c1 [4-((3-Methoxyphenyl)amino)-6-(1-methyl-1H-indazol-6-yl)quinoline-3-carboxamide (19b)] | 12 µM |
| COc1cccc(Nc2c(C(N)=O)cnc3c(C)cc(-c4cn[nH]c4)cc23)c1 [4-((3-Methoxyphenyl)amino)-8-methyl-6-(1H-pyrazol-4-yl)quinoline-3-carboxamide  (17j)] | 9 µM |
| COc1cccc(Nc2c(C(N)=O)cnc3c(C)cc(-c4cccc(-c5nnc(C)s5)c4)cc23)c1 [4-((3-Methoxyphenyl)amino)-8-methyl-6-(3-(5-methyl-1,3,4-thiadiazol-2-yl)phenyl) quinoline-3-carboxamide, formic acid salt (17o)] | 6 µM |
| COc1cccc(Nc2c(C(N)=O)cnc3c(C)cc(-c4cccc(-c5ncco5)c4)cc23)c1 [4-((3-Methoxyphenyl)amino)-8-methyl-6-(3-(oxazol-2-yl)phenyl)quinoline-3-carboxamide (17p)] | 5.9 µM |
| COc1cccc(Nc2c(C(N)=O)cnc3c(C)cc(-c4cccc(N5CCOCC5)c4)cc23)c1 [4-((3-Methoxyphenyl)amino)-8-methyl-6-(3-morpholinophenyl)quinoline-3-carboxamide (17s)] | 12 µM |
| Cc1cc(-c2cccc(-c3ncco3)c2)cc2c(NC3CCCC3)c(C(N)=O)cnc12 [4-(Cyclopentylamino)-8-methyl-6-(3-(oxazol-2-yl)phenyl)quinoline-3-carboxamide (28)] | 5.9 µM |
| COc1cccc(Nc2c(C(N)=O)cnc3c(C)cc(-c4ccc5[nH]ccc5c4)cc23)c1 [6-(1H-Indol-5-yl)-4-((3-methoxyphenyl)amino)-8-methylquinoline-3-carboxamide (17t)] | 5.9 µM |
| COc1cccc(Nc2c(C(N)=O)cnc3c(C)cc(-c4cccc(-c5nnn[nH]5)c4)cc23)c1 [6-(3-(1H-Tetrazol-5-yl)phenyl)-4-((3-methoxyphenyl)amino)-8-methylquinoline-3-carboxamide (17m)] | 6.7 µM |
| COc1cccc(Nc2c(C(N)=O)cnc3c(C)cc(-c4cccc(N)c4)cc23)c1 [6-(3-Aminophenyl)-4-((3-methoxyphenyl)amino)-8-methylquinoline-3-carboxamide (17f)] | 23 µM |
| CCc1cc(-c2ccc3cnn(C)c3c2)cc2c(Nc3cccc(OC)c3)c(C(N)=O)cnc12 [8-Ethyl-4-((3-methoxyphenyl)amino)-6-(1-methyl-1H-indazol-6-yl)quinoline-3-carboxamide (19c)] | 3.7 µM |
| Cc1cccc(Nc2c(C(N)=O)cnc3c(C)cc(-c4ccc5cnn(C)c5c4)cc23)c1 [8-Methyl-6-(1-methyl-1H-indazol-6-yl)-4-(m-tolylamino)quinoline-3-carboxamide (24e)] | 3.5 µM |
| COc1cccc(Nc2c(C(N)=O)cnc3c(C)cc(S(=O)(=O)c4cccc(C(=O)N(C)C)c4)cc23)c1 [GSK-256066] | 24 µM |
| COC(=O)c1cccc(Nc2cc(C)c3ncc(C(N)=O)c(Nc4cccc(OC)c4)c3c2)c1 [Methyl 3-(3-carbamoyl-4-(3-methoxyphenylamino)-8-methylquinolin-6-ylamino)benzoate (13)] | 16 µM |
| COC(=O)c1cccc(S(=O)(=O)c2cc(C)c3ncc(C(N)=O)c(Nc4cccc(OC)c4)c3c2)c1 [Methyl 3-(3-carbamoyl-4-(3-methoxyphenylamino)-8-methylquinolin-6-ylsulfonyl)benzoate (10a)] | 3.5 µM |
| COC(=O)c1cccc(-c2cc(C)c3ncc(C(N)=O)c(Nc4cccnc4)c3c2)c1 [Methyl 3-(3-carbamoyl-8-methyl-4-(pyridin-3-ylamino)quinolin-6-yl)benzoate (22f)] | 26 µM |
| COC(=O)c1cccc(-c2cc(C)c3ncc(C(N)=O)c(NCc4ccccc4)c3c2)c1 [Methyl 3-(4-(benzylamino)-3-carbamoyl-8-methylquinolin-6-yl)benzoate (22c)] | 28 µM |
